Patent publication US10597388B2, “Pyridazinone herbicides” (FMC CORPORATION, priority 2014, dated 2020)

Legend:
Format in all cases: in vivo
[1] = tested on: pigweed (Amaranthus retroflexus); experiment: Test A greenhouse herbicide test, pre- and postemergence
Outline: (§1)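 Visual injury ratings, 0 (no effect) to 100 (complete control), versus untreated plants after roughly 10 d in a greenhouse. Compounds, formulated in a surfactant-containing non-phytotoxic solvent, were sprayed on loam–sand soil after sowing (pre) or on one- to two-leaf plants 2–10 cm tall (post).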

[2] = tested on: corn (Zea mays); experiment: as above; settings: Postemergence
Outline: as §1

[3] = tested on: kochia (Kochia scoparia); experiment: as above
Outline: as §1

[4] = tested on: ryegrass, Italian (Italian ryegrass, Lolium multiflorum); experiment: as above
Outline: as §1

[5] = tested on: ragweed (common ragweed, Ambrosia elatior); experiment: as above
Outline: as §1

[6] = tested on: wheat (Triticum aestivum); experiment: as above; settings: Postemergence
Outline: as §1

[7] = tested on: foxtail, giant (giant foxtail, Setaria faberii); experiment: as above
Outline: as §1

[8] = tested on: nutsedge, yellow (yellow nutsedge, Cyperus esculentus); experiment: Test C greenhouse herbicide test, pre- and postemergence
Outline: (§2)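 Visual 0–100 injury score (100 = complete control) taken against untreated controls after 13–15 d in greenhouse. Test chemicals, formulated in solvent plus surfactant, applied preemergence to seeds in loam–sand soil or postemergence to 1- to 4-leaf plants (2–18 cm).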

[9] = tested on: velvetleaf (Abutilon theophrasti); experiment: as above
Outline: as §2

[10] = tested on: oilseed rape (Brassica napus); experiment: as above
Outline: as §2

[11] = tested on: galium (catchweed bedstraw, Galium aparine); experiment: as above
Outline: as §2

[12] = Postemergence, 125 g ai/ha, 0 to 100 scale where 0 is no effect and 100 is complete control
[13] = Postemergence, 500 g ai/ha, visual rating after approx. 10 d, 0 to 100 scale (0 no effect, 100 complete control)
[14] = Preemergence, 125 g ai/ha, 0 to 100 scale where 0 is no effect and 100 is complete control
[15] = Preemergence, 500 g ai/ha, 0 to 100 scale where 0 is no effect and 100 is complete control
[16] = 125 g ai/ha, 0 to 100 scale where 0 is no effect and 100 is complete control
[17] = 500 g ai/ha, visual rating after approx. 10 d, 0 to 100 scale (0 no effect, 100 complete control)
[18] = Postemergence, 31 g ai/ha, scale 0 to 100 (0 no effect, 100 complete control)
[19] = Postemergence, 125 g ai/ha, scale 0 to 100, 0 is no effect, 100 is complete control
[20] = Postemergence, 250 g ai/ha, scale 0 to 100, 0 no effect, 100 complete control, 13 to 15 d
[21] = Preemergence, 31 g ai/ha, scale 0 to 100, 0 is no effect, 100 is complete control
[22] = Preemergence, 62 g ai/ha, scale 0 to 100, 0 is no effect, 100 is complete control
[23] = Preemergence, 125 g ai/ha, scale 0 to 100, 0 is no effect, 100 is complete control
[24] = Preemergence, 250 g ai/ha, scale 0 to 100 (0 no effect, 100 complete control)

CCC(=O)Oc1c(Cl)nn(C)c(=O)c1-c1c(C)sc2ccc(Cl)cc12 [Compound 111]
Plant response rating, Pigweed [1, 12]: 100 | Plant response rating, Pigweed [1, 13]: 100 | Pigweed plant response rating [1, 14]: 90 | Plant response rating, Pigweed [1, 15]: 100 | Plant response rating, Corn [2, 16]: 0 | Plant response rating, Corn [2, 17]: 20 | Plant response rating, Kochia [3, 12]: 40 | Plant response rating, Kochia [3, 13]: 90 | Kochia plant response rating [3, 14]: 60 | Plant response rating, Kochia [3, 15]: 100 | Plant response rating, Ryegrass, Italian [4, 12]: 90 | Plant response rating, Ryegrass, Italian [4, 13]: 100 | Ryegrass, Italian plant response rating [4, 14]: 90 | Plant response rating, Ryegrass, Italian [4, 15]: 100 | Plant response rating, Ragweed [5, 12]: 70 | Plant response rating, Ragweed [5, 13]: 100 | Ragweed plant response rating [5, 14]: 80 | Plant response rating, Ragweed [5, 15]: 90 | Plant response rating, Wheat [6, 16]: 20 | Plant response rating, Wheat [6, 17]: 30 | Plant response rating, Foxtail, Giant [7, 12]: 70 | Plant response rating, Foxtail, Giant [7, 13]: 100 | Foxtail, Giant plant response rating [7, 14]: 80 | Plant response rating, Foxtail, Giant [7, 15]: 100 | Plant response rating, Nutsedge, Yellow [8, 18]: 35 | Plant response rating, Nutsedge, Yellow [8, 19]: 65 | Plant response rating, Nutsedge, Yellow [8, 20]: 75 | Plant response rating, Nutsedge, Yellow [8, 21]: 0 | Plant response rating, Nutsedge, Yellow [8, 22]: 20 | Plant response rating, Nutsedge, Yellow [8, 23]: 75 | Nutsedge, Yellow plant response rating [8, 24]: 90 | Plant response rating, Velvetleaf [9, 18]: 40 | Plant response rating, Velvetleaf [9, 19]: 98 | Plant response rating, Velvetleaf [9, 20]: 90 | Plant response rating, Velvetleaf [9, 21]: 65 | Plant response rating, Velvetleaf [9, 22]: 70 | Plant response rating, Velvetleaf [9, 23]: 95 | Velvetleaf plant response rating [9, 24]: 100 | Plant response rating, Oilseed Rape [10, 18]: 80 | Plant response rating, Oilseed Rape [10, 19]: 95 | Plant response rating, Oilseed Rape [10, 20]: 100 | Plant response rating, Oilseed Rape [10, 21]: 0 | Plant response rating, Oilseed Rape [10, 22]: 98 | Plant response rating, Oilseed Rape [10, 23]: 100 | Oilseed Rape plant response rating [10, 24]: 100 | Plant response rating, Galium [11, 18]: 95 | Plant response rating, Galium [11, 19]: 95 | Plant response rating, Galium [11, 20]: 95 | Plant response rating, Galium [11, 21]: 80 | Plant response rating, Galium [11, 22]: 80 | Plant response rating, Galium [11, 23]: 100 | Galium plant response rating [11, 24]: 100
